Laboratory results from patent US20020165267A1 (priority 2001, published 2002).

Columns and labels:
[1] = humans; set by the FDA; cited from earlier work
[2] = system: Bacillus thuringiensis ATCC55055; Bacillus subtilis 1270; test: Agar diffusion test, clear zones of growth inhibition around wells; format: cell-based; details: Phloxine B 100 μg/ml; 50 μl per well; 37° C., 16 hours
Method: Sensitivity of bacteria to the commercially available Phloxine B measured by agar diffusion test. Principle of this microbiological assay: The bacteria were grown on Brain Heart Infusion (BHI) broth. Growth was analyzed by measuring turbidity with a spectrophotometer. During the logarithmic phase (OD of 0 3 at 600 nm), 200 μl of the bacterial culture was spread over the surface of an agar plate with a bent glass rod. Fifty μl of various concentrations of Phloxine B (200, 100, 50, 25, and 12.5 μg/ml diluted in the BHI broth) were added to the wells. The plate was then transferred to an incubator at 37° C. the appearance of clear zones around the wells after 16 hours, indicating inhibition of bacterial growth, was noted.

[3] = system: B. mycoides, B. thuringiensis, and B. subtilis; format: cell-based

Substance: 2′,4′,5′,7′-tetrachlorofluorecein disodium salt [Phloxine B]
- acceptable daily intake (ADI) [1]: 1.25 mg/kg
- size of clear zones compared with chloramphenicol [2]: half the inhibition zones observed with chloramphenicol at 200 μg/ml
- reduction of the number of Colony-Forming Units ([3]; 100 μg/ml, printed also as factor of 100): more than two logs
- inhibition of bacterial growth ([3]; 100, 75, 50, 25 μg/ml added in logarithmic growth phase, BHI broth): dose-dependent manner
- antibiotic activity on bacteria ([3]; B. mycoides, B. thuringiensis, B. subtilis): very good antibiotic activity
- decrease of bacterial count ([3]; dye added at 100 μg/ml, in minutes): 3 logs
